From ChEMBL document CHEMBL1156506, “Changes to the HIV long terminal repeat and to HIV integrase differentially impact HIV integrase assembly, activity, and the binding of strand transfer inhibitors” (J Biol Chem, 2007)

Experiment: Binding affinity to HIV wild type integrase
Set-up: species or system Human immunodeficiency virus

In the case of `[3H]C([3H])([3H])n1c(N2CCCCS2(=O)=O)nc(C(=O)NCc2ccc(F)cc2)c(O)c1=O`, the Kd is reported as 21 nM.
